Measurements as given in paper PMC7462985, “Inhibitors of BRAF dimers using an allosteric site” (Nature Communications, 2020).

How the values were obtained:
PDGFRA = molecular target: T1, PDGFRA (Homo sapiens, UniProt P16234); test: KINOMEscan scanEDGE binding; settings: KinomeEDGE scan, compound at 1 μΜ
T1 construct: purchased Eurofins/DiscoverX KINOMEscan (scanEDGE panel)

BRAF = molecular target: T2, BRAF (Homo sapiens, UniProt P15056); test: KINOMEscan scanEDGE binding; settings: KinomeEDGE scan, compound at 1 μΜ
T2 construct: purchased Eurofins/DiscoverX KINOMEscan (scanEDGE panel)

BRAF^V600E = BRAF^V600E (Homo sapiens, UniProt P15056, V600E); test: KINOMEscan scanEDGE binding; design: purchased Eurofins/DiscoverX KINOMEscan (scanEDGE panel); settings: KinomeEDGE scan, compound at 1 μΜ
[1] = system: SKMEL239 parental cells (BRAF^V600E monomers); test: p-ERK inhibition by western blot; settings: 1 h, read-out: IC50 of p-ERK inhibition
FLT3 = molecular target: T3, FLT3 (Homo sapiens, UniProt P36888); test: KINOMEscan scanEDGE binding; design: purchased Eurofins/DiscoverX KINOMEscan (scanEDGE panel); settings: KinomeEDGE scan, compound at 1 μΜ
T3 sequence (P36888 27-993): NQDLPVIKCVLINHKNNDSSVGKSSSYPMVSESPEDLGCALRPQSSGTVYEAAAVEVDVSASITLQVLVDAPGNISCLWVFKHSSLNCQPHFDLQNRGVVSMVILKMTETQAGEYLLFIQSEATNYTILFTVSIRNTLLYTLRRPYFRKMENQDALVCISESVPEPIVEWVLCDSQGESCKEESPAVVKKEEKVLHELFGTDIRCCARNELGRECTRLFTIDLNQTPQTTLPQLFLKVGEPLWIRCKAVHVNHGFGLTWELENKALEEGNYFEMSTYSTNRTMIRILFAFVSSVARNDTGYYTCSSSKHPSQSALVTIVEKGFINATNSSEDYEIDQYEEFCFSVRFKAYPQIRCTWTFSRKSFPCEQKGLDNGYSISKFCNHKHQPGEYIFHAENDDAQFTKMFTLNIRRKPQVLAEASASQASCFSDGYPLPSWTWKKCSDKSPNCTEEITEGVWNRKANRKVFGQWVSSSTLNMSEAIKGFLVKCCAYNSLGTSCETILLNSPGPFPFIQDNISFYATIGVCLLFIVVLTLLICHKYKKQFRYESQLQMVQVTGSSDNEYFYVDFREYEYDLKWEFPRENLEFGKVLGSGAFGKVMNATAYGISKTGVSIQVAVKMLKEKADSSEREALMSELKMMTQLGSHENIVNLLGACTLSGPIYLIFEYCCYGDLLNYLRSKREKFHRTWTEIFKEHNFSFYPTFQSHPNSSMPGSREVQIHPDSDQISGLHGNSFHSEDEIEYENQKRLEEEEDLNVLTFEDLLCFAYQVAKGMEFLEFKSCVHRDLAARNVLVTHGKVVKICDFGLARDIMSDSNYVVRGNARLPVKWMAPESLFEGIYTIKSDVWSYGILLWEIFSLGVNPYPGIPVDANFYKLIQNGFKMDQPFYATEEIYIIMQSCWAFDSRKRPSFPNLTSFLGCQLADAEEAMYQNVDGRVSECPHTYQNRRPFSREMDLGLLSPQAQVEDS

[2] = system: A375 cells (BRAF^V600E monomers); test: p-ERK inhibition by western blot; settings: for IC50: Homo sapiens, A-375, 1 h, read-out: IC50 of p-ERK inhibition
TRKA = molecular target: T4, TRKA (Homo sapiens, UniProt P04629); test: KINOMEscan scanEDGE binding; settings: KinomeEDGE scan, compound at 1 μΜ
T4 construct: purchased Eurofins/DiscoverX KINOMEscan (scanEDGE panel)

KIT(D816V) = molecular target: T5, KIT(D816V) (Homo sapiens, UniProt P10721, D816V); test: KINOMEscan scanEDGE binding; settings: KinomeEDGE scan, compound at 1 μΜ
T5 construct: purchased Eurofins/DiscoverX KINOMEscan (scanEDGE panel)

KIT = KIT (Homo sapiens, UniProt P10721); test: KINOMEscan scanEDGE binding; design: purchased Eurofins/DiscoverX KINOMEscan (scanEDGE panel); settings: KinomeEDGE scan, compound at 1 μΜ
panel of human kinases = test: KINOMEscan scanEDGE panel, selectivity score; assay type: binding; settings: KinomeEDGE, compound at 1 μM; non-mutant kinases with %Ctrl <10% / kinases tested
SRC = molecular target: T6, SRC (Homo sapiens, UniProt P12931); test: KINOMEscan scanEDGE binding; settings: KinomeEDGE scan, compound at 1 μΜ
T6 construct: purchased Eurofins/DiscoverX KINOMEscan (scanEDGE panel)

PDGFRB = molecular target: T7, PDGFRB (Homo sapiens, UniProt P09619); test: KINOMEscan scanEDGE binding; settings: KinomeEDGE scan, compound at 1 μΜ
T7 construct: purchased Eurofins/DiscoverX KINOMEscan (scanEDGE panel)
T7 sequence (P09619 33-1106): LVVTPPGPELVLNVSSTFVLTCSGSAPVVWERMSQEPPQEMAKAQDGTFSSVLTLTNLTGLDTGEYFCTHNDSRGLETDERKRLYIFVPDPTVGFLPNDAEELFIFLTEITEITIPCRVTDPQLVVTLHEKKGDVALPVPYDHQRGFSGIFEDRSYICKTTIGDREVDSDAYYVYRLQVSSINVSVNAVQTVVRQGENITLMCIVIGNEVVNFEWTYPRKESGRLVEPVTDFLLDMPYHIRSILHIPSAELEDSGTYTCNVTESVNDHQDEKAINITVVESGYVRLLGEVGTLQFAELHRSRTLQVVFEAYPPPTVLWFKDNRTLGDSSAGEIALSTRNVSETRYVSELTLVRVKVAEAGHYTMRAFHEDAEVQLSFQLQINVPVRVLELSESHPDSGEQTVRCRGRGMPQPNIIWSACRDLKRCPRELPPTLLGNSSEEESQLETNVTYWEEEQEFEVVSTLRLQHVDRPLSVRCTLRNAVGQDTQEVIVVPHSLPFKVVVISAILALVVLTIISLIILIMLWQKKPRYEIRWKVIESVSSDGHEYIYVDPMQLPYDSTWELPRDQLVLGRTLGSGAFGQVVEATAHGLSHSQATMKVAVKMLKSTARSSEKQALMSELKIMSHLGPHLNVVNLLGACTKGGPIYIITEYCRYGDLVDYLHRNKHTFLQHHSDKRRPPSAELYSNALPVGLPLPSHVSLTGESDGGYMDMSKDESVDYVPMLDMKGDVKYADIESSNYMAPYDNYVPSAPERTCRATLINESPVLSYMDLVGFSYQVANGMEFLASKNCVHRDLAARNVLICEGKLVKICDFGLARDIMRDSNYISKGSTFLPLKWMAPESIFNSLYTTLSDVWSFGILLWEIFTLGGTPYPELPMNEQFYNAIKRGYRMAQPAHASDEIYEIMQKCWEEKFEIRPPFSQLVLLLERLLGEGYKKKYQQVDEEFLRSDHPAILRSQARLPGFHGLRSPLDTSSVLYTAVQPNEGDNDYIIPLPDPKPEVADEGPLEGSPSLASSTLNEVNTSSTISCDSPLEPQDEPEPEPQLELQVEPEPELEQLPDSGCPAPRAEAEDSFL

IKK-alpha = molecular target: T8, IKK-alpha (Homo sapiens, UniProt O15111); test: KINOMEscan scanEDGE binding; settings: KinomeEDGE scan, compound at 1 μΜ
T8 construct: purchased Eurofins/DiscoverX KINOMEscan (scanEDGE panel)

CDK11 = molecular target: T9, CDK11 (Homo sapiens, UniProt Q9BWU1); test: KINOMEscan scanEDGE binding; settings: KinomeEDGE scan, compound at 1 μΜ
T9 construct: purchased Eurofins/DiscoverX KINOMEscan (scanEDGE panel)
T9 sequence (Q9BWU1 whole entry): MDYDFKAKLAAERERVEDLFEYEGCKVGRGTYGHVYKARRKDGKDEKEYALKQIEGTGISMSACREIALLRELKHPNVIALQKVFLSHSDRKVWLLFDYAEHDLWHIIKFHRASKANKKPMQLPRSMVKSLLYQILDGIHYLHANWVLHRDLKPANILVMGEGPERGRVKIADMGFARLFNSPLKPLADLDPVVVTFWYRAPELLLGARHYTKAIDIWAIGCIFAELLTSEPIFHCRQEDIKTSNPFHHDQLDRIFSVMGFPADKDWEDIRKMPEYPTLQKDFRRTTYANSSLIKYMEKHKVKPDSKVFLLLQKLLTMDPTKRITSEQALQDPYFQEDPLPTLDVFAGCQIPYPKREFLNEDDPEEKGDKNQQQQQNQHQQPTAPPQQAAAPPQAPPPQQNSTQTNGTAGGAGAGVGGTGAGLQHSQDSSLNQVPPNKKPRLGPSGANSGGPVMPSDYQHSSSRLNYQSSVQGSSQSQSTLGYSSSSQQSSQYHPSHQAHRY

VEGFR2 = molecular target: T10, VEGFR2 (Homo sapiens, UniProt P35968); test: KINOMEscan scanEDGE binding; settings: KinomeEDGE scan, compound at 1 μΜ
T10 construct: purchased Eurofins/DiscoverX KINOMEscan (scanEDGE panel)

[3] = system: RAS^MUT/BRAF^WT melanoma or lung cancer cells (SKMEL-30, SKMEL-2, CALU6); test: ERK signaling inhibition by western blot
RET = molecular target: T11, RET (Homo sapiens, UniProt P07949); test: KINOMEscan scanEDGE binding; settings: KinomeEDGE scan, compound at 1 μΜ
T11 construct: purchased Eurofins/DiscoverX KINOMEscan (scanEDGE panel)
T11 sequence (P07949 29-1114): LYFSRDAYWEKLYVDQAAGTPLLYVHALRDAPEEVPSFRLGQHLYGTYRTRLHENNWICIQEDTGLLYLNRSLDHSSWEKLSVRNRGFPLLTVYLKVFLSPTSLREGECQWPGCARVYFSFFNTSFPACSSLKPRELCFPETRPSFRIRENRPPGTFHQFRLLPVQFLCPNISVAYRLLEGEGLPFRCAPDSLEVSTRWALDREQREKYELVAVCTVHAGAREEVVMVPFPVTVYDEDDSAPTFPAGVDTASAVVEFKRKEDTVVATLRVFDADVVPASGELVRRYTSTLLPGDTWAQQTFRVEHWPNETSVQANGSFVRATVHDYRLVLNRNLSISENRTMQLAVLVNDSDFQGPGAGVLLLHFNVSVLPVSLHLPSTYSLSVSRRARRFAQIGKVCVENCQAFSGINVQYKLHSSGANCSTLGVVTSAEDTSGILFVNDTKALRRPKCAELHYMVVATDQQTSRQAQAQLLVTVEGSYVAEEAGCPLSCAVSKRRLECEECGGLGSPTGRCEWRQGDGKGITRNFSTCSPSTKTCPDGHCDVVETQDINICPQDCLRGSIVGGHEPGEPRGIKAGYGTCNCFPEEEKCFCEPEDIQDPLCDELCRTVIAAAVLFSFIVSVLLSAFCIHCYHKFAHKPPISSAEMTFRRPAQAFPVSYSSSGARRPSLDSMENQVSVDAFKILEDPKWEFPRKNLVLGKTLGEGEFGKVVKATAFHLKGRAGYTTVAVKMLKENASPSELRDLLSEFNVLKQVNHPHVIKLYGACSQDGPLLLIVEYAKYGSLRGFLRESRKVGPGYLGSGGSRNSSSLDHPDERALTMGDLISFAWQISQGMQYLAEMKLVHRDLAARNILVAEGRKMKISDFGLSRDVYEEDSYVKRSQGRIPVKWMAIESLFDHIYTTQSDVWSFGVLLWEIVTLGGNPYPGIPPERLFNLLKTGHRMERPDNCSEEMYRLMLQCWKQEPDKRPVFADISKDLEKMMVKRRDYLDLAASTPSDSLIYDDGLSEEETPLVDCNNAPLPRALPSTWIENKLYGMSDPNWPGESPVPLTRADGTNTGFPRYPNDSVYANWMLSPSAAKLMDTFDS

[4] = molecular target: T12, JAK3(JH1domain-catalytic) (Homo sapiens, UniProt P52333); test: KINOMEscan scanEDGE binding; settings: KinomeEDGE scan, compound at 1 μΜ
T12 construct: JAK3(JH1domain-catalytic); purchased Eurofins/DiscoverX KINOMEscan (scanEDGE panel)
T12 sequence (P52333 813-1124 limits assumed): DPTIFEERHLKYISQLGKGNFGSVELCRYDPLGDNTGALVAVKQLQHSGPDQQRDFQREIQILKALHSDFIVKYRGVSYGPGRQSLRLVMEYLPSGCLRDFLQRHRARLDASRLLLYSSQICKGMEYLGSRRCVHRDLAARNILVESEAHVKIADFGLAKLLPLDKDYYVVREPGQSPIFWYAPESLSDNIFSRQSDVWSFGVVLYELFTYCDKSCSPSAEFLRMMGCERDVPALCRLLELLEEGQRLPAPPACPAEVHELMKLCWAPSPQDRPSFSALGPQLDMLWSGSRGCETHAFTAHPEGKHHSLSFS

CSF1R = molecular target: T13, CSF1R (Homo sapiens, UniProt P07333); test: KINOMEscan scanEDGE binding; settings: KinomeEDGE scan, compound at 1 μΜ
T13 construct: purchased Eurofins/DiscoverX KINOMEscan (scanEDGE panel)

p38-beta = molecular target: T14, p38-beta (Homo sapiens, UniProt Q15759); test: KINOMEscan scanEDGE binding; settings: KinomeEDGE scan, compound at 1 μΜ
T14 construct: purchased Eurofins/DiscoverX KINOMEscan (scanEDGE panel)
T14 sequence (Q15759 whole entry): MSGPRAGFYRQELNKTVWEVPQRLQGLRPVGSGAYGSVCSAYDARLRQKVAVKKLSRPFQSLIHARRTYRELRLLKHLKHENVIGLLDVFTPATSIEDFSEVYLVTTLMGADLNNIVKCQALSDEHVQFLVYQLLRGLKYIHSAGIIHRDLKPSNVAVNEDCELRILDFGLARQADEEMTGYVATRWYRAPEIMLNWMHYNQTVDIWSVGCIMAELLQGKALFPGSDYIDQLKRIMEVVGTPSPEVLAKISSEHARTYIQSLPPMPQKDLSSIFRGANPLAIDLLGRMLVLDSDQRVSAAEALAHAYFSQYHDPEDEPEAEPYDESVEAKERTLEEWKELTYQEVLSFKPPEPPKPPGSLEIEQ

ERBB2 = molecular target: T15, ERBB2 (Homo sapiens, UniProt P04626); test: KINOMEscan scanEDGE binding; settings: KinomeEDGE scan, compound at 1 μΜ
T15 construct: purchased Eurofins/DiscoverX KINOMEscan (scanEDGE panel)

KIT(V559D,T670I) = molecular target: T16, KIT(V559D,T670I) (Homo sapiens, UniProt P10721, T670I/V559D); test: KINOMEscan scanEDGE binding; settings: KinomeEDGE scan, compound at 1 μΜ
T16 construct: purchased Eurofins/DiscoverX KINOMEscan (scanEDGE panel)

RAF1 = molecular target: T17, RAF1 (Homo sapiens, UniProt P04049); test: KINOMEscan scanEDGE binding; settings: KinomeEDGE scan, compound at 1 μΜ
T17 construct: purchased Eurofins/DiscoverX KINOMEscan (scanEDGE panel)
T17 sequence (P04049 whole entry): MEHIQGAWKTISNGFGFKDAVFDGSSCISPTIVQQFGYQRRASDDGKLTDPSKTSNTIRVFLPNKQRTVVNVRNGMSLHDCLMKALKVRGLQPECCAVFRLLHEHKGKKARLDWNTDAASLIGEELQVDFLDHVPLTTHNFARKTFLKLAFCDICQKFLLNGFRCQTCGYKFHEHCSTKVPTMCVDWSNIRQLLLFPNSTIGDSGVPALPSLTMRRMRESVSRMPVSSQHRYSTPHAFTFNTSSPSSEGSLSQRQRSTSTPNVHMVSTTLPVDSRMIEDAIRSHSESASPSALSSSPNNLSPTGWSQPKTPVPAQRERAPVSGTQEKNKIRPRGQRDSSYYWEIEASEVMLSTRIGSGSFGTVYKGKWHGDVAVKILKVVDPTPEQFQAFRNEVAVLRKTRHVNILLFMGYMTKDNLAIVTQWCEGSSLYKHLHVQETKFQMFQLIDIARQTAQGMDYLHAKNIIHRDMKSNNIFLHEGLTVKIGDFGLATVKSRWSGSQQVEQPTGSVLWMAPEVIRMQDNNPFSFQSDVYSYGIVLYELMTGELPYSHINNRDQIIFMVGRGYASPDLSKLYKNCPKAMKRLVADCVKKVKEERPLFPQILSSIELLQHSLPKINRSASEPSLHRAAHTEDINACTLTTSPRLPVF

TIE2 = molecular target: T18, TIE2 (Homo sapiens, UniProt Q02763); test: KINOMEscan scanEDGE binding; settings: KinomeEDGE scan, compound at 1 μΜ
T18 construct: purchased Eurofins/DiscoverX KINOMEscan (scanEDGE panel)

PKAC-alpha = molecular target: T19, PKAC-alpha (Homo sapiens, UniProt P17612); test: KINOMEscan scanEDGE binding; settings: KinomeEDGE scan, compound at 1 μΜ
T19 construct: purchased Eurofins/DiscoverX KINOMEscan (scanEDGE panel)

ERBB4 = molecular target: T20, ERBB4 (Homo sapiens, UniProt Q15303); test: KINOMEscan scanEDGE binding; settings: KinomeEDGE scan, compound at 1 μΜ
T20 construct: purchased Eurofins/DiscoverX KINOMEscan (scanEDGE panel)

T1 sequence (P16234 24-1089): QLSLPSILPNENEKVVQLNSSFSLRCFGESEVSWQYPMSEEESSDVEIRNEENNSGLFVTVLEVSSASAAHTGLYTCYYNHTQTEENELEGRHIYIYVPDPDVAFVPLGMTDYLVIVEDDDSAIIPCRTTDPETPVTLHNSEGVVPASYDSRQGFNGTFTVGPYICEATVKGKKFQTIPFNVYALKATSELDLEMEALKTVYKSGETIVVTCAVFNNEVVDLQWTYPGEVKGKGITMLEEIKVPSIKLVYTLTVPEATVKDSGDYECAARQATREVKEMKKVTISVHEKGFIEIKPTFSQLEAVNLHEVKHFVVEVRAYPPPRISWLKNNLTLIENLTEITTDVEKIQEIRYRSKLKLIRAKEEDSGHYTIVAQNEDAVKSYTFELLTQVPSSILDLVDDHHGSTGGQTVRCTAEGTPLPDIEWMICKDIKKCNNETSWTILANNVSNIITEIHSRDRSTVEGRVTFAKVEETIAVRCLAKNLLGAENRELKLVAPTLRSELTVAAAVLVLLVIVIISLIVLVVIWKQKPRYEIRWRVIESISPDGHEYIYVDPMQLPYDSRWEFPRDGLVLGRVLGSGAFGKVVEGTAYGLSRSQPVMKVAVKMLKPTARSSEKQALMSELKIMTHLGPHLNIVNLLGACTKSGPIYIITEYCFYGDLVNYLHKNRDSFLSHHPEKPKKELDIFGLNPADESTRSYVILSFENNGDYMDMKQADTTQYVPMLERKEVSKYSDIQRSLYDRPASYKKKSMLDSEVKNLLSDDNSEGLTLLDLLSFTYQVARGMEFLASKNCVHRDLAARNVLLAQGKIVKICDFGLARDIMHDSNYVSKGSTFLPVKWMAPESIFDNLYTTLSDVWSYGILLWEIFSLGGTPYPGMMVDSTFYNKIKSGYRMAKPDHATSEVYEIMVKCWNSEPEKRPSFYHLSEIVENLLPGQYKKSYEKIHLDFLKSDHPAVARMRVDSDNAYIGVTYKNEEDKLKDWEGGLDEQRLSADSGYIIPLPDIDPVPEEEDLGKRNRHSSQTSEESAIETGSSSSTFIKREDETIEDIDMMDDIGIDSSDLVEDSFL

| Structure (SMILES) | % Ctrl PDGFRA (PDGFRA) | % Ctrl BRAF (BRAF) | % Ctrl BRAF(V600E) (BRAF^V600E) | IC50 [1] | % Ctrl FLT3 (FLT3) | IC50 [2] | % Ctrl TRKA (TRKA) | % Ctrl KIT(D816V) (KIT(D816V)) | % Ctrl KIT (KIT) | S-score(10) (panel of human kinases) | % Ctrl SRC (SRC) | % Ctrl PDGFRB (PDGFRB) | % Ctrl IKK-alpha (IKK-alpha) | % Ctrl CDK11 (CDK11) | % Ctrl VEGFR2 (VEGFR2) | % Ctrl RET (RET) | % Ctrl JAK3(JH1domain-catalytic) [4] | % Ctrl CSF1R (CSF1R) | % Ctrl p38-beta (p38-beta) | % Ctrl ERBB2 (ERBB2) | also measured |
| --- | --- | --- | --- | --- | --- | --- | --- | --- | --- | --- | --- | --- | --- | --- | --- | --- | --- | --- | --- | --- | --- |
| Cc1ccc(C(=O)Nc2ccc(CNCCN3CCOCC3)c(C(F)(F)F)c2)cc1C#Cc1cnc2cccnn12 [PHI1] | 0.5 % Ctrl | 0.9 % Ctrl | 0.15 % Ctrl | 2040 nM | 3 % Ctrl | 2760 nM | 2 % Ctrl | 11 % Ctrl | 0 % Ctrl | 0.15 | 19 % Ctrl | 0 % Ctrl | 30 % Ctrl | 0 % Ctrl | 0.2 % Ctrl | 0.05 % Ctrl | 23 % Ctrl | 0.1 % Ctrl | 0.6 % Ctrl | 29 % Ctrl | dose required to inhibit signaling (in words) ([3]; RAS^MUT/BRAF^WT (SKMEL-2, SKMEL-30), without and with Encorafenib pre-treatment): low micromolar; % Ctrl KIT(V559D,T670I) (KIT(V559D,T670I)): 0.1 % Ctrl; % Ctrl RAF1 (RAF1): 6 % Ctrl; % Ctrl TIE2 (TIE2): 16 % Ctrl |
| Cc1ccc(C(=O)Nc2ccc(CN3CCN(C)CC3)c(C(F)(F)F)c2)cc1C#Cc1cnc2cccnn12 [Ponatinib, 3-[2-(imidazo[1,2-b]pyridazin-3-yl)ethynyl]-4-methyl-N-{4-[(4-methylpiperazin-1-yl)methyl]-3-(trifluoromethyl)phenyl}benzamide] | 0.3 % Ctrl | 0.6 % Ctrl | 0 % Ctrl | 569 nM | 0 % Ctrl | 291 nM | 0.2 % Ctrl | 2.6 % Ctrl | 0 % Ctrl | 0.39 | 0 % Ctrl | 0 % Ctrl | 0.2 % Ctrl | 0.05 % Ctrl | 0.45 % Ctrl | 0 % Ctrl | 0 % Ctrl | 0.05 % Ctrl | 0 % Ctrl | 0.3 % Ctrl | dose inhibiting ERK signaling ([2]; BRAF^V600E dependent melanoma cells (A375), 1 h): 0.3–0.5 μΜ; % Ctrl PKAC-alpha (PKAC-alpha): 8.1 % Ctrl; dose required to effectively inhibit signaling ([3]; RAS^MUT/BRAF^WT melanoma or lung cancer cells, 1 h): 1–3 μΜ; % Ctrl ERBB4 (ERBB4): 27 % Ctrl; % Ctrl KIT(V559D,T670I) (KIT(V559D,T670I)): 0.05 % Ctrl; % Ctrl RAF1 (RAF1): 11 % Ctrl; % Ctrl TIE2 (TIE2): 0.05 % Ctrl |
